# Measured values from article PMC5587642, “A Novel Benzocoumarin-Stilbene Hybrid as a DNA ligase I inhibitor with in vitro and in vivo anti-tumor activity in breast cancer models” (Scientific Reports, 2017).
# “Also recorded” adds a separate entry of the source.
# Tests used:
# [1] = tested on: 4T1 mouse breast cancer induced syngeneic breast tumor; assay: Syngeneic 4T1 orthotopic breast cancer model; type: in vivo, BALB/c mice; settings: 50 and 100 mg/kg, oral gavage daily for 32 days
# Description: Animal studies were conducted under the protocol approved by the CSIR-CDRI Institutional Animal Ethics Committee (IAEC approval no. IAEC/2015/03). The in-vivo efficacy studies were performed using BALB/c mice with 4T1 mouse breast cancer induced syngeneic breast tumor model. Mouse tumor model was generated as described by Pulaski et al.[38]. Three different groups of 6 mice each were created for the experiment. Mouse breast cancer cells (4T1) were grown in tissue culture flask upto 70% confluence. Cells were then trypsinized, washed with serum containing medium to quench trypsin activity and then washed and resuspended in PBS. Then cells were injected orthotopically (1 × 10^6 cells in 100 μl PBS) into the mammary fat pad on the right flank of each female BALB/c mouse. Within 2 weeks, palpable tumors were formed and tumor bearing mice were divided randomly into one control and two treatment groups of six mice each. The treatment schedule began on day 16 of the injection and continued for another thirty two days. Compounds were administered by oral gavage once daily at 50 and 100 mg/kg. Tumor volumes were measured every fourth day. The group of vehicle treated animals served as control. The tumor volume, body weight and any behavioral changes in mice were monitored and recorded for the entire duration of the experiment (32 days). Tumor volumes were calculated using the formula (a × b^2)/2, where a, b are two longest perpendicular diameters.
# [2] = biological target: T1, hLigI (Homo sapiens, UniProt P18858); assay: Circular dichroism study; type: binding; settings: 5 and 10 µM
# T1 construct: made in house
# T1 sequence (P18858 whole entry): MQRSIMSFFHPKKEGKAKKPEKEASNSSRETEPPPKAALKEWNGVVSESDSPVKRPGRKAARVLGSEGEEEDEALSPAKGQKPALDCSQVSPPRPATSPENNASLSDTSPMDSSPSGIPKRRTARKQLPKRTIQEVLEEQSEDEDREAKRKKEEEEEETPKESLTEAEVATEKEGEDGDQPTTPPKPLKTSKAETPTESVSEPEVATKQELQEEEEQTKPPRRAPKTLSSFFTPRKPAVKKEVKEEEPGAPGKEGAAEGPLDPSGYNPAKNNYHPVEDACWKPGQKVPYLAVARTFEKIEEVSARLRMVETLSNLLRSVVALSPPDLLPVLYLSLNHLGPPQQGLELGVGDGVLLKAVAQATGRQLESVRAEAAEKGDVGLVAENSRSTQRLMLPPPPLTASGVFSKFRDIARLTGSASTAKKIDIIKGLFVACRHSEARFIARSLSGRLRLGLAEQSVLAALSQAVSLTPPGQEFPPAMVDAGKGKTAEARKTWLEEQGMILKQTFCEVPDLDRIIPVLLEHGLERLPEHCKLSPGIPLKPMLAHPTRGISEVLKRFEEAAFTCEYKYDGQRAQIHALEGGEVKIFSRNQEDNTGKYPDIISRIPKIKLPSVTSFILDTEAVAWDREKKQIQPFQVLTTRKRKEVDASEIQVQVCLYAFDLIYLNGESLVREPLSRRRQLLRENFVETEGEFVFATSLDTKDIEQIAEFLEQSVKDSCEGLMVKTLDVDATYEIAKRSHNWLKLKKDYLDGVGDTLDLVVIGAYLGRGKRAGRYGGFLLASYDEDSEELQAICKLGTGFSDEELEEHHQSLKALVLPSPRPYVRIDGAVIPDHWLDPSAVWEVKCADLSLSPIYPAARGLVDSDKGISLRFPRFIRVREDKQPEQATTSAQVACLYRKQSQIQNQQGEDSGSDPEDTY
# Description: We followed previously described protocol for CD studies[40] with small modifications. Briefly, emission spectra of hLigI (100 pmol) was recorded at a wavelength of 190-250 nm in the presence (5 and 10 µM) or absence of compound 19 by spectropolarimeter. The raw values in mdeg were obtained and used for mean residual ellipticity [θ] calculation. The graph was generated by the plotting the value of mean residue ellipticity in deg cm^2 dmol^−1 with respect to wavelength.
# [3] = Stability in simulated gastric and intestinal fluids; type: in vitro ADME; settings: 2 µg/mL, up to 180 min
# Description: Simulated gastric fluid (SGF) and simulated intestinal fluid (SIF) were prepared according to USP specifications. The compound 19 was incubated in SGF (0.2 g NaCl, 0.32 g pepsin, 0.7 mL HCl and triple distilled water up to 100 mL, pH 1.2) or SIF (0.680 g […], 0.616 g NaOH, 1 g pancreatin and triple distilled water up to 100 mL, pH 6.8). From the stock solution of compound 19 (1 mg/mL), equivalent concentration of 2 μg/mL of compound 19 were added to 1 mL of preincubated reaction mixture of SGF and SIF, at 37 °C in a shaking water bath in triplicate. 100 μL aliquots of sample was collected at each time point at 0, 5, 15, 30 and 60 min for SGF and 0, 5, 15, 30, 60 90, 120 and 180 min for SIF according to the human gastrointestinal transit time, followed by quenching with acetonitrile, then vortexed and centrifuged at 12000 rpm for 5 min. The supernatant was collected and analyzed by HPLC. The graph was plotted between % drug remaining and incubation time for SGF and SIF.
# [4] = biological target: T1, hLigI; assay: In-vitro fluorescence quenching assay; type: binding; settings: 5 and 10 µM, excitation 280 nm
# Description: In-vitro fluorescence quenching assay was performed as described previously[16] with brief modifications. At the fixed excitation wavelength 280 nm emission spectra of hLigI (100 pmol) was recorded from 300 to 400 nm in the presence (5 and 10 µM) or absence of compound 19 by spectrofluorometer. Compound 19 was used at 5 and 10 µM concentration with hLigI (100 pmol). Spectra was acquired for buffer alone (50 mM Tris-HCl, pH 7.5, 50 mM NaCl, 1 mM ATP, 10 mM MgCl2, 2 mM DTT and 5% glycerol), buffer with vehicle control, buffer with inhibitor alone and for buffer with protein and inhibitor.
# [5] = tested on: PLC/PRF/5 (Liver); assay: MTT cell viability assay; type: cell-based
# Description: (§1) Cell viability assay was performed as described previously. Briefly, cells were seeded in 96 well plates and treated with different concentrations of compound 19 for 48 h. After drug treatment, MTT reagent was added in each well of the plate and cell viability was quantified by measuring the absorbance at 590 nm.
# [6] = tested on: 4T1 (Mouse Breast Cancer); assay: MTT cell viability assay; type: cell-based
# Description: as §1
# [7] = tested on: SK-OV-3 (Ovary); assay: MTT cell viability assay; type: cell-based
# Description: as §1
# [8] = tested on: A172 (Brain); assay: MTT cell viability assay; type: cell-based
# Description: as §1
# [9] = tested on: PANC-1 (Pancreas); assay: MTT cell viability assay; type: cell-based
# Description: as §1
# [10] = tested on: HEK-293 (Non-cancerous cell); assay: MTT cell viability assay; type: cell-based
# Description: as §1
# [11] = tested on: A549 (Lung); assay: MTT cell viability assay; type: cell-based
# Description: as §1
# [12] = tested on: DLD1 (Colon); assay: MTT cell viability assay; type: cell-based
# Description: as §1
# [13] = tested on: MDA-MB-231 cells; assay: Western blotting of DNA damage and apoptosis markers; type: cell-based, human; settings: 6 and 12 µM, 48 h
# Description: Cells (MDA-MB-231) were seeded in 6 well plates and treated either with vehicle control (DMSO) or with different concentrations (6 and 12 µM) of compound 19 for 48 h. After the treatment cell lysate was prepared and western blotting was performed as described previously. Briefly, the cells were lysed by very brief sonication. Sonicated samples were centrifuged and the supernatant was collected and used for ligation assay and western blotting.
# [14] = tested on: MDA-MB-231 cells; assay: Scratch (migration) assay; type: cell-based, human; settings: 3 and 6 µM; 12 and 24 h
# Description: The migration capacity of highly metastatic human breast cancer MDA-MB-231 cells was assessed by in-vitro scratch assay as described previously[36] with some modifications. Briefly, cells were plated in 12 well plates and a scratch was created by scraping the cells with a sterile 10 μL pipet tip in the middle of the culture well. After removal of cellular debris, the cells were treated with different concentrations of the test compound. Images of the wound area were captured at 0, 12 and 24 h post-treatment. Wound area was measured by TScratch software and data were expressed as percent (%) open area of control and treated cells.
structure (smiles),measurement,setting,value
"COc1cc(/C=C/c2cc(=O)oc3c2ccc2ccccc23)cc(OC)c1 [Compound 19, (E)-4-(3,5-dimethoxystyryl)-2H-benzo[h]chromen-2-one]",Average body weight,[1],no significant change in the average body weight
same,Breast cancer metastasis to the lungs (4T1 nodules),[1],marked decrease in breast cancer metastasis to the lungs
same,Breast tumor growth in-vivo,[1],inhibited breast tumor growth in-vivo in a dose dependent manner; also recorded: arrested tumor progression but could not induce tumor regression
same,Conformational change of hLigI (CD),[2],promoted conformational changes in protein
same,Stability in SGF (simulated gastric fluid),"[3]; pH 1.2, 37 °C",83.19 ± 3.22%
same,Stability in SIF (simulated intestinal fluid),"[3]; pH 6.8, 37 °C",96.45 ± 0.79%
same,Change of hLigI fluorescence spectra (protein binding),[4],fluorescence spectra of the full length hLigI protein changed
same,"% Inhibition of cell viability at 10 µM, PLC/PRF/5 (Liver)",[5],NA (NA= Not active (% Inhibition <30%))
same,"% Inhibition of cell viability at 10 µM, 4T1 (Mouse Breast Cancer)",[6]; 10 µM,53.18%
same,IC50,"[6]; Mus musculus, MTT, 48 h",11.6 ± 1.7 µM
same,"% Inhibition of cell viability at 10 µM, SK-OV-3 (Ovary)",[7],NA (NA= Not active (% Inhibition <30%))
same,"% Inhibition of cell viability at 10 µM, A172 (Brain)",[8],43.71%
same,"% Inhibition of cell viability at 10 µM, PANC-1 (Pancreas)",[9],50.32%
same,"% Inhibition of cell viability at 10 µM, HEK-293 (Non-cancerous cell)",[10],37.83%
same,"% Inhibition of cell viability at 10 µM, A549 (Lung)",[11],NA (NA= Not active (% Inhibition <30%))
same,"% Inhibition of cell viability at 10 µM, DLD1 (Colon)",[12],42.64%
same,"Apoptotic signaling (p53, MDM2, PCNA, caspase 9, caspase 3, PARP-1)",[13],promotes p53 mediated intrinsic pathway of apoptosis
same,DNA damage marker γH2AX expression,[13],increased expression of γH2AX
same,Cell migration (percent open area),[14],significantly inhibit the cell migration
